Tests used:
Assay type in all cases: ADME, organism-based
[1] = (§1) Evaluation of pharmacokinetic parameters for Felodipine following single oral administration of Felodipine immediate or extended-release tablets; parameters: dose 10 mg, dose 20 mg, route oral; conditions: human, in vivo; dosed compound id 10, dosed compound name FELODIPINE, regimen Single dose, route oral, tissue Plasma
Homo sapiens [2] = experiment: as §1; parameters: dose 10 mg, dose 20 mg, route oral; conditions: in vivo, po, dosed compound id 10, dosed compound name FELODIPINE, regimen Single dose, tissue Plasma
[3] = (§2) Evaluation of pharmacokinetic parameters for Felodipine following multiple oral administration of Felodipine immediate-release tablets; parameters: dose 10 mg, route oral; conditions: human, in vivo, 10 mg, dosed compound id 10, dosed compound name FELODIPINE, gender male and female, regimen Once daily, tissue Plasma
Homo sapiens [4] = experiment: as §2; parameters: dose 10 mg, route oral; conditions: in vivo, dose 10 mg, dosed compound id 10, dosed compound name FELODIPINE, gender male and female, regimen Once daily, route oral, tissue Plasma

Tmax [1]: 2.5 to 5 h
bioavailability [1]: 5%
Cmin ss (Homo sapiens [2]; dose 10 mg, gender young male and female): 2 nM
Cmin ss (Homo sapiens [2]; dose 20 mg, gender male and female): 7 nM
Cmax (Homo sapiens [2]; gender male and female): 23 nM
Cmax (Homo sapiens [2]; gender young male and female): 7 nM
Cmax [3]: 20 nM
Cmin ss (Homo sapiens [4]): 0.5 nM
Compound: CCOC(=O)C1=C(C)NC(C)=C(C(=O)OC)C1c1cccc(Cl)c1Cl (stereo not drawn) [FELODIPINE]
